The subject of assay [1] is keratinocytes and LCs or fibroblasts and DDC in co-culture. The assay is described as follows: Cytokine secretion in monolayer pluricellular co-culture models under the effect of an active ingredient. The settings on record: retinol 0.05% final concentration in culture medium for 3 days. Type of assay: cell-based, human. The text has this: 1 to 2.10^6 human keratinocytes and 1 to 2.10^6 human monocytes (obtained according to Example 1 or 2) are jointly grown in a nutritious medium, for example of the K-SFM type, in culture dishes, for example of the 6-well plate type. The joint culture is maintained for 6 days in a nutritious medium, for example of the K-SFM type, without adding any exogenous cytokine.
1 to 2.10^6 human fibroblasts and 1 to 2.10^6 human monocytes (obtained according to Example 1 or 2) are jointly grown in a nutritious medium, for example of the FBM type, in culture dishes for example of the 6-well plate type. The joint culture is maintained for 6 days in a nutritious medium, for example of the FBM type, without adding any exogenous cytokine.
In order to assess the irritating, sensitizing, allergizing potency, and to estimate a possible pro- or anti-inflammatory activity of an active ingredient intended for human skin, we quantify in the culture supernatants, secretion of cytokines, for example, IL-1, IL-6, IL-8, IL-10, TNF-[…] INF[…], according to the following protocol: • The model is made according to the protocol described in Example 3 or 4. • Retinol is then added into the culture medium at a final concentration of 0.05% for 3 days. • The culture supernatants are then recovered and analyzed.

For assay [2], the system named is pro-inflammatory cytokines (IL-1, IL-6, IL-8, TNF-alpha, INF-gamma). Description: CBA flux cytometry dosage of cytokine secretion in culture supernatants of UV-irradiated reconstructed skin. Conditions: for efficiency on cell viability and synthesis of pro-inflammatory interleukins after solar UV stress: both parameters (cell mortality, pro-inflammatory molecules), UV-irradiated reconstructed skin; for TNFβ / IL1β / IL8 / IL6: reconstructed skin UV irradiated + formulation with 3% active, 10 days; for TNFβ: control 53, UV irradiated 152; for IL1β: control 76, UV irradiated 179; for IL8: control 275, UV irradiated 395; for IL6: control 379, UV irradiated 649. Type of assay: cell-based, human. From the text:
The model was made according to the following protocol: • The reconstructed dermis model containing DCCs, macrophages and endothelial cells was made according to Example 12. • The reconstructed skin model containing LCs was made according to Example 14.

As for `CC1=C(/C=C/C(C)=C/C=C/C(C)=C/CO)C(C)(C)CCC1` [retinol, Retinol], the “secretion of pro-inflammatory cytokines” value in assay [1] is “stimulation of secretion of pro-inflammatory cytokines”.

Take Quercitine Caprylate [Flavenger]: in assay [2], the “efficiency on cell viability and synthesis of pro-inflammatory interleukins after solar UV stress” value is reported as “demonstrated efficiency with a possible tendency to restore the reference level”; the TNFβ was found to be 89 pg/mL; the IL1β is given as 97 pg/mL; the IL8 amounted to 294 pg/mL. In addition, in assay [2], the IL6 is recorded as 426 pg/mL.

Take Hesperitine Laurate [Flavagrum]: in assay [2], the “efficiency on cell viability and synthesis of pro-inflammatory interleukins after solar UV stress” value is “demonstrated efficiency with a possible tendency to restore the reference level”; the TNFβ came to 105 pg/mL; the IL1β amounted to 125 pg/mL; the IL8 was 312 pg/mL. Also, in assay [2], the IL6 is 452 pg/mL.

The values are drawn from patent US20100297765A1 (priority 2006, published 2010).
